What was measured:
Experiment in all cases: relative viability (nuclei count vs DMSO), 5 days (fraction); higher = more cells survive
EMC-BAC-2 = system: EMC-BAC-2
Outline: (§1)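 Lung cancer cell lines in 1536-well plates got either a single drug or a fixed anchor-drug dose together with five library-drug doses (not always all listed) in √10 steps, by pin tool, on the day after seeding. Nuclei were counted after 5 days, and relative viability is the treated-to-vehicle ratio of nuclei counts. Values are medians of duplicate plates.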

NCI-H647 = system: NCI-H647
Outline: as §1

NCI-H838 = system: NCI-H838
Outline: as §1

201T = system: 201T
Outline: as §1

HARA = system: HARA
Outline: as §1

NCI-H441 = system: NCI-H441
Outline: as §1

BEN = system: BEN
Outline: as §1

HCC-44 = system: HCC-44
Outline: as §1

NCI-H2126 = system: NCI-H2126
Outline: as §1

LOU-NH91 = system: LOU-NH91
Outline: as §1

NCI-H1666 = system: NCI-H1666
Outline: as §1

NCI-H2009 = system: NCI-H2009
Outline: as §1

NC(=O)Nc1cc(-c2cccc(F)c2)sc1C(=O)N[C@H]1CCCNC1 [AZD7762] + C[C@]1(O)C[C@@H](c2nc(-c3ccc4ccc(-c5ccccc5)nc4c3)c3c(N)nccn32)C1 [Linsitinib] (partner 1 µM)
relative viability (EMC-BAC-2; first compound 0.1 µM): 0.799
relative viability (EMC-BAC-2; first compound 0.3162 µM): 0.799
relative viability (EMC-BAC-2; first compound 1 µM): 0.809
relative viability (NCI-H647; first compound 0.01 µM): 1.37
relative viability (NCI-H647; first compound 0.03162 µM): 1.3
relative viability (NCI-H647; first compound 0.1 µM): 1.05
relative viability (NCI-H647; first compound 0.3162 µM): 0.462
relative viability (NCI-H647; first compound 1 µM): 0.153
relative viability (NCI-H838; first compound 0.01 µM): 0.982
relative viability (NCI-H838; first compound 0.03162 µM): 1.01
relative viability (NCI-H838; first compound 0.1 µM): 0.942
relative viability (NCI-H838; first compound 0.3162 µM): 0.978
relative viability (NCI-H838; first compound 1 µM): 0.627
relative viability (201T; first compound 0.01 µM): 1.04
relative viability (201T; first compound 0.03162 µM): 1.06
relative viability (201T; first compound 0.1 µM): 1.1
relative viability (201T; first compound 0.3162 µM): 1.09
relative viability (201T; first compound 1 µM): 0.969
relative viability (HARA; first compound 0.01 µM): 0.961
relative viability (HARA; first compound 0.03162 µM): 0.934
relative viability (HARA; first compound 0.1 µM): 0.847
relative viability (HARA; first compound 0.3162 µM): 0.854
relative viability (HARA; first compound 1 µM): 0.617
relative viability (NCI-H441; first compound 0.01 µM): 0.656
relative viability (NCI-H441; first compound 0.03162 µM): 0.744
relative viability (NCI-H441; first compound 0.1 µM): 0.657
relative viability (NCI-H441; first compound 0.3162 µM): 0.823
relative viability (NCI-H441; first compound 1 µM): 0.67
relative viability (BEN; first compound 0.01 µM): 1.04
relative viability (BEN; first compound 0.03162 µM): 0.892
relative viability (BEN; first compound 0.1 µM): 0.797
relative viability (BEN; first compound 0.3162 µM): 0.829
relative viability (BEN; first compound 1 µM): 0.643
relative viability (HCC-44; first compound 0.01 µM): 0.739
relative viability (HCC-44; first compound 0.03162 µM): 0.679
relative viability (HCC-44; first compound 0.1 µM): 0.724
relative viability (HCC-44; first compound 0.3162 µM): 0.647
relative viability (HCC-44; first compound 1 µM): 0.861
relative viability (NCI-H2126; first compound 0.01 µM): 0.711
relative viability (NCI-H2126; first compound 0.03162 µM): 0.758
relative viability (NCI-H2126; first compound 0.1 µM): 0.763
relative viability (NCI-H2126; first compound 0.3162 µM): 0.706
relative viability (NCI-H2126; first compound 1 µM): 0.805
relative viability (LOU-NH91; first compound 0.01 µM): 1.01
relative viability (LOU-NH91; first compound 0.03162 µM): 0.966
relative viability (LOU-NH91; first compound 0.1 µM): 0.933
relative viability (LOU-NH91; first compound 0.3162 µM): 0.794
relative viability (LOU-NH91; first compound 1 µM): 0.57
relative viability (NCI-H1666; first compound 0.01 µM): 0.845
relative viability (NCI-H1666; first compound 0.03162 µM): 1.02
relative viability (NCI-H1666; first compound 0.1 µM): 1.05
relative viability (NCI-H1666; first compound 0.3162 µM): 0.868
relative viability (NCI-H1666; first compound 1 µM): 0.565
relative viability (NCI-H2009; first compound 0.01 µM): 1.32
relative viability (NCI-H2009; first compound 0.03162 µM): 1.18
relative viability (NCI-H2009; first compound 0.1 µM): 1.27
relative viability (NCI-H2009; first compound 0.3162 µM): 1.22
relative viability (NCI-H2009; first compound 1 µM): 0.752

From the supplement of paper PMC10307832
